In ChEMBL document CHEMBL1125149, “Quinazoline antifolate thymidylate synthase inhibitors: benzoyl ring modifications in the C2-methyl series” (J Med Chem, 1990) one finds IC50 and Control data, which are given here for 38 molecules.

In assay [1] the target is Thymidylate synthase (Mus musculus, UniProt P07607). The assay is described as follows: Inhibition of partially purified thymidylate synthase (TS).
The subject of assay [2] is L1210. Briefly: Growth inhibition of L1210 cells in culture. Type of assay: functional, cell-based. To be noted: Mus musculus.
The subject of assay [3] is L1210. The assay is described as follows: (§1) Percent control for L1210 cell growth in the presence of thymidine (in vitro). Further details: concentration or dose not given beside the values. Type of assay: functional, Mus musculus.
The test system of assay [4] is L1210. The description is as §1. The assay is classed as functional, Mus musculus.

Chain of Thymidylate synthase (P07607 whole entry): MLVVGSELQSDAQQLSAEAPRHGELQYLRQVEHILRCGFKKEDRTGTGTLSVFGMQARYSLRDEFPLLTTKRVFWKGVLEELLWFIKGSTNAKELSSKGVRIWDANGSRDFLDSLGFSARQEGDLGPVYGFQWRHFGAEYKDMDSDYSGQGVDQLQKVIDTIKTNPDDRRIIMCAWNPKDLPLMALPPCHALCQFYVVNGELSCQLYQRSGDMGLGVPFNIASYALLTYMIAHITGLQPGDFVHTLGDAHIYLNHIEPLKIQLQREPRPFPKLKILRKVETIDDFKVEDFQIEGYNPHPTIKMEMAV

Consider `CCN(Cc1ccc2nc(C)[nH]c(=O)c2c1)c1ccc(C(=O)N[C@@H](CCC(=O)O)C(=O)O)c([N+](=O)[O-])c1`, for which the IC50 (as a rule, the concentration needed to halve the response being measured) turned out to be 145 nM in assay [1] and 1500 nM in assay [2].

In the case of `CCN(Cc1ccc2nc(C)[nH]c(=O)c2c1)c1ccc(C(=O)N[C@@H](CCC(=O)O)C(=O)O)c(N)c1`, the IC50 in assay [1] was 310 nM; in assay [2] it was 1300 nM.

`C#CCN(Cc1ccc2nc(C)[nH]c(=O)c2c1)c1ccc(C(=O)N[C@@H](CCC(=O)O)C(=O)O)c(C(F)(F)F)c1`: the IC50 in assay [1] was 480 nM; in assay [2], 1200 nM.

Regarding `C#CCN(Cc1ccc2nc(C)[nH]c(=O)c2c1)c1ccc(C(=O)N[C@@H](CCC(=O)O)C(=O)O)c(N)c1`, the values for the concentration for half-maximal inhibition (IC50) in assay [1] and in assay [2] were 290 nM and 360 nM, respectively.

For `Cc1nc2ccc(CN(CCN)c3ccc(C(=O)N[C@@H](CCC(=O)O)C(=O)O)c(F)c3)cc2c(=O)[nH]1`, the IC50 in assay [1] came out at 11700 nM; in assay [2], 2700 nM.

Regarding `Cc1nc2ccc(CNc3ccc(C(=O)N[C@@H](CCC(=O)O)C(=O)O)cc3F)cc2c(=O)[nH]1`, the IC50 in assay [1] was 9340 nM; in assay [2], 120 nM. The Control in assay [3] is given as 86%.

Turning to `Cc1nc2ccc(CN(CCF)c3ccc(C(=O)N[C@@H](CCC(=O)O)C(=O)O)c(F)c3)cc2c(=O)[nH]1`, the IC50 was found to be 43 nM in assay [1] and 130 nM in assay [2]. In addition, the Control in assay [3] was determined as 98%.

Take `Cc1nc2ccc(CNc3ccc(C(=O)N[C@@H](CCC(=O)O)C(=O)O)c(F)c3)cc2c(=O)[nH]1`: the IC50 in assay [1] came to 3780 nM; in assay [2], 64 nM. Also, in assay [3], the Control was found to be 94%.

Turning to `Cc1nc2ccc(CN(CCO)c3ccc(C(=O)N[C@@H](CCC(=O)O)C(=O)O)cc3F)cc2c(=O)[nH]1`, the IC50 stood at 3580 nM in assay [1] and 85 nM in assay [2]. Besides, the Control in assay [3] turned out to be 95%.

Turning to `Cc1nc2ccc(CN(CCCO)c3ccc(C(=O)N[C@@H](CCC(=O)O)C(=O)O)cc3F)cc2c(=O)[nH]1`, the IC50 in assay [1] came to 980 nM; in assay [2], 170 nM.

With `Cc1nc2ccc(CN(CCCO)c3ccc(C(=O)N[C@@H](CCC(=O)O)C(=O)O)cc3)cc2c(=O)[nH]1`, in assay [3], the Control came out at 95%.

Turning to `Cc1nc2ccc(CN(CCCO)c3ccc(C(=O)N[C@@H](CCC(=O)O)C(=O)O)c(F)c3)cc2c(=O)[nH]1`, the IC50 in assay [1] was determined as 590 nM; in assay [2], 30 nM. For the same molecule, the Control in assay [3] is given as 95%.

Turning to `CCN(Cc1ccc2nc(C)[nH]c(=O)c2c1)c1ccc(C(=O)N[C@@H](CCC(=O)O)C(=O)O)c(F)c1`, the IC50 amounted to 45 nM in assay [1] and 65 nM in assay [2]. In assay [3], the Control stood at 96%.

On to `CCN(Cc1ccc2nc(C)[nH]c(=O)c2c1)c1ccc(C(=O)N[C@@H](CCC(=O)O)C(=O)O)c(C)c1`, for which the IC50 in assay [1] was 320 nM; in assay [2] it was 1200 nM. In assay [3], the Control is recorded as 94%.

For `Cc1nc2ccc(CN(CCF)c3ccc(C(=O)N[C@@H](CCC(=O)O)C(=O)O)cc3F)cc2c(=O)[nH]1`, the figures for the IC50 in assay [1] and in assay [2] were 1750 nM and 69 nM, respectively.

In the case of `C=CCN(Cc1ccc2nc(C)[nH]c(=O)c2c1)c1ccc(C(=O)N[C@@H](CCC(=O)O)C(=O)O)cc1F`, the IC50 in assay [1] worked out at 5160 nM; in assay [2], 140 nM. Also, in assay [3], the Control is 97%.

Consider `CCN(Cc1ccc2nc(C)[nH]c(=O)c2c1)c1ccc(C(=O)N[C@@H](CCC(=O)O)C(=O)O)cc1F`, for which the IC50 turned out to be 680 nM in assay [1] and 86 nM in assay [2]. For the same molecule, the Control in assay [3] was determined as 96%.

With `Cc1nc2ccc(CN(CCO)c3ccc(C(=O)N[C@@H](CCC(=O)O)C(=O)O)c(F)c3)cc2c(=O)[nH]1`, the IC50 in assay [1] was 78 nM; in assay [2] it was 70 nM.

For the molecule `CCN(Cc1ccc2nc(C)[nH]c(=O)c2c1)c1ccc(C(=O)N[C@@H](CCC(=O)O)C(=O)O)c(OC)c1`, the IC50 in assay [1] came to 190 nM; in assay [2], 18000 nM.

Take `Cc1nc2ccc(CN(C)c3ccc(C(=O)N[C@@H](CCC(=O)O)C(=O)O)c(N)c3)cc2c(=O)[nH]1`: the values for the IC50 in assay [1] and in assay [2] were 860 nM and 760 nM, respectively.

With `CCN(Cc1ccc2nc(C)[nH]c(=O)c2c1)c1ccc(C(=O)N[C@@H](CCC(=O)O)C(=O)O)c(Cl)c1`, the figures for the IC50 in assay [1] and in assay [2] were 120 nM and 870 nM, respectively.

Consider `C#CCN(Cc1ccc2nc(C)[nH]c(=O)c2c1)c1ccc(C(=O)N[C@@H](CCC(=O)O)C(=O)O)c(F)c1`, for which the Control in assay [3] amounted to 97%.

As for `C#CCN(Cc1ccc2nc(C)[nH]c(=O)c2c1)c1ccc(C(=O)N[C@@H](CCC(=O)O)C(=O)O)cc1F`, the figures for the IC50 in assay [1] and in assay [2] were 1430 nM and 52 nM, respectively. In assay [3], the Control was determined as 102%.

In the case of `Cc1nc2ccc(CN(C)c3ccc(C(=O)N[C@@H](CCC(=O)O)C(=O)O)c(F)c3)cc2c(=O)[nH]1`, the concentration for half-maximal inhibition (IC50) in assay [1] was found to be 120 nM; in assay [2], 19 nM. Besides, the Control in assay [3] came to 98%.

Regarding `Cc1nc2ccc(CN(CC(N)=O)c3ccc(C(=O)N[C@@H](CCC(=O)O)C(=O)O)c(F)c3)cc2c(=O)[nH]1`, the IC50 turned out to be 1340 nM in assay [1] and 800 nM in assay [2].

For the molecule `C=CCN(Cc1ccc2nc(C)[nH]c(=O)c2c1)c1ccc(C(=O)N[C@@H](CCC(=O)O)C(=O)O)c(F)c1`, the results for the IC50 in assay [1] and in assay [2] were 76 nM and 100 nM, respectively. The Control in assay [3] is 97%.

On to `C#CCN(Cc1ccc2nc(C)[nH]c(=O)c2c1)c1ccc(C(=O)N[C@@H](CCC(=O)O)C(=O)O)c([N+](=O)[O-])c1`, for which the IC50 was 130 nM in assay [1] and 400 nM in assay [2].

As for `Cc1nc2ccc(CN(C)c3ccc(C(=O)N[C@@H](CCC(=O)O)C(=O)O)c(C)c3)cc2c(=O)[nH]1`, the IC50 in assay [1] is 940 nM; in assay [2], 800 nM.

In the case of `C#CCN(Cc1ccc2nc(C)[nH]c(=O)c2c1)c1ccc(C(=O)N[C@@H](CCC(=O)O)C(=O)O)c(O)c1`, the IC50 stood at 90 nM in assay [1] and 500 nM in assay [2]. For the same molecule, the Control in assay [3] amounted to 77%.

In the case of `Cc1nc2ccc(CN(CC#N)c3ccc(C(=O)N[C@@H](CCC(=O)O)C(=O)O)c(F)c3)cc2c(=O)[nH]1`, the IC50 in assay [1] was found to be 170 nM; in assay [2] it was 34 nM. For the same molecule, the Control in assay [3] was 90%.

For the molecule `C#CCN(Cc1ccc2nc(C)[nH]c(=O)c2c1)c1ccc(C(=O)N[C@@H](CCC(=O)O)C(=O)O)c(C)c1`, the IC50 in assay [1] was 500 nM; in assay [2] it was 360 nM. In addition, the Control in assay [3] turned out to be 97%.

Turning to `C#CCN(Cc1ccc2nc(C)[nH]c(=O)c2c1)c1ccc(C(=O)N[C@@H](CCC(=O)O)C(=O)O)c(OC)c1`, the IC50 in assay [1] turned out to be 67 nM; in assay [2] it was 3000 nM. For the same molecule, the Control in assay [3] amounted to 95%.

Regarding `C#CCN(Cc1ccc2nc(C)[nH]c(=O)c2c1)c1ccc(C(=O)N[C@@H](CCC(=O)O)C(=O)O)c(Cl)c1`, the IC50 is 74 nM in assay [1] and 250 nM in assay [2].

For `C=CCN(Cc1ccc2nc(C)[nH]c(=O)c2c1)c1ccc(C(=O)N[C@@H](CCC(=O)O)C(=O)O)cc1`, the Control in assay [3] is 104%.

Turning to `Cc1nc2ccc(CN(C)c3ccc(C(=O)N[C@@H](CCC(=O)O)C(=O)O)cc3)cc2c(=O)[nH]1`, the Control in assay [3] was determined as 100%.

`C#CCN(Cc1ccc2nc(C)[nH]c(=O)c2c1)c1ccc(C(=O)N[C@@H](CCC(=O)O)C(=O)O)cc1`: in assay [3], the Control is 100%.

On to `CCN(Cc1ccc2nc(C)[nH]c(=O)c2c1)c1ccc(C(=O)N[C@@H](CCC(=O)O)C(=O)O)cc1`, for which the Control in assay [3] is 88%.

For `Cc1nc2ccc(CN(C)c3ccc(C(=O)N[C@@H](CCC(=O)O)C(=O)O)cc3F)cc2c(=O)[nH]1`, the figures for the IC50 in assay [1] and in assay [2] were 1140 nM and 140 nM, respectively. In addition, the Control in assay [4] was found to be 92%.
